Test results: PubChem BioAssay (NCI)
“And” between values parts separate entries of the source, which are not always exact repeats. Equal entries are not always repeated.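 Grown in 96-well plates, cells were treated for 48 hours with each compound at five concentrations. Insufficient inhibition: endpoint recorded as highest concentration tested. GI50 is the concentration that inhibits growth by half. TGI is the concentration that stops growth completely.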

Columns and labels:
Assay in all cases: DTP human tumour cell line panel, 48 h
UACC-257 melanoma = system: UACC-257 melanoma
OVCAR-3 ovarian = system: OVCAR-3 ovarian
MOLT-4 leukemia = system: MOLT-4 leukemia
SF-295 CNS = system: SF-295 CNS
ACHN renal = system: ACHN renal
MDA-MB-435 = system: MDA-MB-435
OVCAR-4 ovarian = system: OVCAR-4 ovarian
786-0 renal = system: 786-0 renal
PC-3 prostate = system: PC-3 prostate
HOP-62 NSCLC = system: HOP-62 NSCLC

`CNc1ccc(CSc2ccc(C)cc2)cc1` was tested, and the GI50 (UACC-257 melanoma) was 36.1 µM, the TGI (UACC-257 melanoma) was > 100 µM and the GI50 (OVCAR-3 ovarian) was 11700 nM. The TGI (OVCAR-3 ovarian) was > 100 µM, the GI50 (MOLT-4 leukemia) was 2220 nM and the TGI (MOLT-4 leukemia) was 29.3 µM. For the same compound, the GI50 (SF-295 CNS) was 22.3 µM, the TGI (SF-295 CNS) was > 100 µM and the GI50 (ACHN renal) was 34000 nM. The TGI (ACHN renal) was > 100 µM, the GI50 (MDA-MB-435) was 13.1 µM and the TGI (MDA-MB-435) was > 100 µM. The GI50 (OVCAR-4 ovarian) was 7.44 µM, the TGI (OVCAR-4 ovarian) was > 100 µM and the GI50 (786-0 renal) was 4.45 µM. The TGI (786-0 renal) was > 100 µM, the GI50 (PC-3 prostate) was 13.2 µM and the TGI (PC-3 prostate) was > 100 µM. For the same compound, the GI50 (HOP-62 NSCLC) was > 100 µM and the TGI (HOP-62 NSCLC) was > 100 µM.
In the case of `O=C([CH-]C(=O)c1ccccc1)c1ccccc1.[CH2-]C.[CH2-]C.[Tl+3]`, the GI50 (UACC-257 melanoma) is reported as 45.6 µM, the TGI (UACC-257 melanoma) is reported as > 100 µM and the GI50 (OVCAR-3 ovarian) is reported as 28000 nM. The TGI (OVCAR-3 ovarian) was > 100 µM, the GI50 (MOLT-4 leukemia) was 6630 nM and the TGI (MOLT-4 leukemia) was 41.8 µM. The GI50 (SF-295 CNS) was 15.6 µM, the TGI (SF-295 CNS) was > 100 µM and the GI50 (ACHN renal) was 24500 nM. For the same compound, the TGI (ACHN renal) was 98.7 µM, the GI50 (MDA-MB-435) was 24.8 µM and the TGI (MDA-MB-435) was > 100 µM. For the same compound, the GI50 (OVCAR-4 ovarian) was 16.8 µM, the TGI (OVCAR-4 ovarian) was > 100 µM and the GI50 (786-0 renal) was 19.2 µM. For the same compound, the TGI (786-0 renal) was > 100 µM, the GI50 (PC-3 prostate) was 32 µM and the TGI (PC-3 prostate) was > 100 µM. The GI50 (HOP-62 NSCLC) was 22.2 µM and the TGI (HOP-62 NSCLC) was > 90.2 µM.
`CC(C)(C)OC(=O)CC(S(=O)(=O)c1ccccc1)S(=O)(=O)c1ccccc1` was tested, and the GI50 (UACC-257 melanoma) was 3.74 µM, the TGI (UACC-257 melanoma) was 15.7 µM and the GI50 (OVCAR-3 ovarian) was 1880 nM. It also gave a TGI (OVCAR-3 ovarian) of 3.29 µM, a GI50 (MOLT-4 leukemia) of 2420 nM and a TGI (MOLT-4 leukemia) of 5.57 µM. The GI50 (SF-295 CNS) was > 100 µM, the TGI (SF-295 CNS) was > 100 µM and the GI50 (ACHN renal) was 1750 nM. It also gave a TGI (ACHN renal) of 3.19 µM, a GI50 (MDA-MB-435) of 13.8 µM and a TGI (MDA-MB-435) of 26.7 µM. The GI50 (OVCAR-4 ovarian) was 1.96 µM, the TGI (OVCAR-4 ovarian) was 4.58 µM and the GI50 (786-0 renal) was 13.9 µM. The TGI (786-0 renal) was 27.4 µM, the GI50 (PC-3 prostate) was 15.1 µM and the TGI (PC-3 prostate) was 29.7 µM. The GI50 (HOP-62 NSCLC) was 19.1 µM and the TGI (HOP-62 NSCLC) was 35.4 µM.
With `CN(Cc1cnc2nc(N)nc(N)c2n1)c1c(Cl)cc(C(=O)NC(CCC(=O)O)C(=O)O)cc1Br` (stereo unspecified) the TGI (UACC-257 melanoma) was > 100 µM, the GI50 (OVCAR-3 ovarian) was < 10 nM and the TGI (OVCAR-3 ovarian) was > 100 µM. The GI50 (MOLT-4 leukemia) was < 10 nM, the TGI (MOLT-4 leukemia) was > 100 µM and the GI50 (SF-295 CNS) was < 0.01 µM. The GI50 (ACHN renal) was < 10 nM, the TGI (ACHN renal) was > 100 µM and the GI50 (MDA-MB-435) was < 0.01 µM. For the same compound, the TGI (MDA-MB-435) was > 100 µM, the GI50 (OVCAR-4 ovarian) was > 100 µM and the TGI (OVCAR-4 ovarian) was > 100 µM. For the same compound, the GI50 (786-0 renal) was < 0.01 µM, the TGI (786-0 renal) was > 100 µM and the GI50 (PC-3 prostate) was < 0.01 µM. The TGI (PC-3 prostate) was > 80.1 µM, the GI50 (HOP-62 NSCLC) was < 0.0221 µM and the TGI (HOP-62 NSCLC) was > 100 µM.
For `c1ccc2[nH]c(-c3cscn3)nc2c1`, the TGI (UACC-257 melanoma) was > 100 µM, the TGI (OVCAR-3 ovarian) was > 100 µM and the TGI (MOLT-4 leukemia) was > 100 µM. For the same compound, the TGI (SF-295 CNS) was > 100 µM, the TGI (ACHN renal) was > 100 µM and the TGI (MDA-MB-435) was > 100 µM. The TGI (OVCAR-4 ovarian) was > 100 µM, the TGI (786-0 renal) was > 100 µM and the TGI (PC-3 prostate) was > 100 µM. For the same compound, the TGI (HOP-62 NSCLC) was > 100 µM and 19.6 µM.
In the case of `COc1cc(C(=O)Nc2ccc(-c3nc4ccccc4[nH]3)cc2)cc(OC)c1OC`, the GI50 (UACC-257 melanoma) is reported as 17.8 µM, the TGI (UACC-257 melanoma) is reported as 38.9 µM and the GI50 (OVCAR-3 ovarian) is reported as 12400 nM. The TGI (OVCAR-3 ovarian) was 27.9 µM, the GI50 (MOLT-4 leukemia) was 9820 nM and the TGI (MOLT-4 leukemia) was 45.4 µM. For the same compound, the GI50 (SF-295 CNS) was 10.7 µM, the TGI (SF-295 CNS) was 25.5 µM and the GI50 (ACHN renal) was 8230 nM. It also gave a TGI (ACHN renal) of 23.1 µM, a GI50 (MDA-MB-435) of 13.5 µM and a TGI (MDA-MB-435) of 31 µM. The GI50 (OVCAR-4 ovarian) was 11.8 µM, the TGI (OVCAR-4 ovarian) was 36.9 µM and the GI50 (786-0 renal) was 11.8 µM. For the same compound, the TGI (786-0 renal) was 28.6 µM, the GI50 (PC-3 prostate) was 13.6 µM and the TGI (PC-3 prostate) was 34 µM. The GI50 (HOP-62 NSCLC) was 6.44 µM and the TGI (HOP-62 NSCLC) was 23.9 µM.
For `COc1ccc2cc1Oc1ccc(cc1)CC1c3c(cc(OC)c4c3Oc3cc5c(cc3O4)CCNC5C2)CCN1C` (stereo unspecified), the GI50 (UACC-257 melanoma) was 1.9 µM, the TGI (UACC-257 melanoma) was 3.14 µM and 3.5 µM and the GI50 (OVCAR-3 ovarian) was 1620 nM. The TGI (OVCAR-3 ovarian) was 7.41 µM and 3.07 µM, the TGI (MOLT-4 leukemia) was 3.44 µM and the GI50 (SF-295 CNS) was 1.8 µM. The TGI (SF-295 CNS) was 3.42 µM and 3.23 µM, the GI50 (ACHN renal) was 1490 nM and the TGI (ACHN renal) was 4.01 µM and 2.81 µM. For the same compound, the GI50 (MDA-MB-435) was 1.56 µM, the TGI (MDA-MB-435) was 3.43 µM and 2.9 µM and the GI50 (OVCAR-4 ovarian) was 1.61 µM. For the same compound, the TGI (OVCAR-4 ovarian) was 6.16 µM and 3.13 µM, the GI50 (786-0 renal) was 2.17 µM and the TGI (786-0 renal) was 3.72 µM. For the same compound, the TGI (PC-3 prostate) was 3.72 µM and 3.23 µM, the GI50 (HOP-62 NSCLC) was 1.59 µM and the TGI (HOP-62 NSCLC) was 5.06 µM and 2.95 µM.
With `Cc1cc(=O)[nH]c2c1C(=O)c1c(C)cc(=O)n(C)c1C2=O` the TGI (UACC-257 melanoma) was 0.0307 µM, the TGI (OVCAR-3 ovarian) was 0.151 µM and the TGI (MOLT-4 leukemia) was > 3.56 µM. The TGI (SF-295 CNS) was 0.31 µM, the TGI (ACHN renal) was 0.223 µM and the TGI (MDA-MB-435) was 0.0275 µM. For the same compound, the TGI (OVCAR-4 ovarian) was 0.378 µM, the TGI (786-0 renal) was 0.182 µM and the TGI (PC-3 prostate) was 0.391 µM. For the same compound, the TGI (HOP-62 NSCLC) was 0.0999 µM.
Compound `Cc1ncc([N+](=O)[O-])n1CCOc1ccc(C(=O)/C=C/c2ccc(C(F)(F)F)cc2)cc1` has a GI50 (UACC-257 melanoma) of 3.6 µM, a TGI (UACC-257 melanoma) of 16.5 µM and a GI50 (OVCAR-3 ovarian) of 2370 nM. For the same compound, the TGI (OVCAR-3 ovarian) was 5.7 µM, the GI50 (MOLT-4 leukemia) was 2170 nM and the TGI (MOLT-4 leukemia) was 6.29 µM. It also gave a GI50 (SF-295 CNS) of 3.47 µM, a TGI (SF-295 CNS) of 13.8 µM and a GI50 (ACHN renal) of 2770 nM. For the same compound, the TGI (ACHN renal) was 9.14 µM, the GI50 (MDA-MB-435) was 3.56 µM and the TGI (MDA-MB-435) was 13.9 µM. For the same compound, the GI50 (OVCAR-4 ovarian) was 2.99 µM, the TGI (OVCAR-4 ovarian) was 14.6 µM and the GI50 (786-0 renal) was 1.87 µM. It also gave a TGI (786-0 renal) of 3.54 µM, a GI50 (PC-3 prostate) of 2.25 µM and a TGI (PC-3 prostate) of 12.2 µM. The GI50 (HOP-62 NSCLC) was 2.53 µM and the TGI (HOP-62 NSCLC) was 7.29 µM.
For `CC(C)OC(=O)c1cc(NC(=S)OC(C)C)ccc1Cl`, the TGI (UACC-257 melanoma) was 50.9 µM, the TGI (OVCAR-3 ovarian) was 48.3 µM and the TGI (MOLT-4 leukemia) was > 79.2 µM. For the same compound, the TGI (SF-295 CNS) was 46.9 µM, the TGI (ACHN renal) was > 59.7 µM and the TGI (MDA-MB-435) was 31.4 µM. The TGI (OVCAR-4 ovarian) was > 56 µM, the TGI (786-0 renal) was > 55.9 µM and the TGI (PC-3 prostate) was 50.9 µM. The TGI (HOP-62 NSCLC) was > 100 µM.
